How the values were obtained:
Test in all cases: scanMax kinase panel (Eurofins)
Type in all cases: binding
[1] = biological target: T1, ABL1(Q252H)-nonphosphorylated (Homo sapiens, UniProt P00519, Q252H); details: read-out: % control
T1 construct: purchased Eurofins
Protocol: (§1) The following assay method was performed to evaluate the inhibitory activities of a compound according to the present invention with respect to various enzymes. […] The compound was applied to the enzyme at a concentration of 1 μM, dissolved in DMSO, and the % control was determined according to Equation 1 below.
(§2) Here, the positive control refers to a compound corresponding to 0% control, and the negative control refers to a compound corresponding to 100% control.

[2] = biological target: T2, RET (Homo sapiens, UniProt P07949); details: read-out: % control
T2 construct: purchased Eurofins scanMax kinase panel
T2 sequence (P07949 29-1114): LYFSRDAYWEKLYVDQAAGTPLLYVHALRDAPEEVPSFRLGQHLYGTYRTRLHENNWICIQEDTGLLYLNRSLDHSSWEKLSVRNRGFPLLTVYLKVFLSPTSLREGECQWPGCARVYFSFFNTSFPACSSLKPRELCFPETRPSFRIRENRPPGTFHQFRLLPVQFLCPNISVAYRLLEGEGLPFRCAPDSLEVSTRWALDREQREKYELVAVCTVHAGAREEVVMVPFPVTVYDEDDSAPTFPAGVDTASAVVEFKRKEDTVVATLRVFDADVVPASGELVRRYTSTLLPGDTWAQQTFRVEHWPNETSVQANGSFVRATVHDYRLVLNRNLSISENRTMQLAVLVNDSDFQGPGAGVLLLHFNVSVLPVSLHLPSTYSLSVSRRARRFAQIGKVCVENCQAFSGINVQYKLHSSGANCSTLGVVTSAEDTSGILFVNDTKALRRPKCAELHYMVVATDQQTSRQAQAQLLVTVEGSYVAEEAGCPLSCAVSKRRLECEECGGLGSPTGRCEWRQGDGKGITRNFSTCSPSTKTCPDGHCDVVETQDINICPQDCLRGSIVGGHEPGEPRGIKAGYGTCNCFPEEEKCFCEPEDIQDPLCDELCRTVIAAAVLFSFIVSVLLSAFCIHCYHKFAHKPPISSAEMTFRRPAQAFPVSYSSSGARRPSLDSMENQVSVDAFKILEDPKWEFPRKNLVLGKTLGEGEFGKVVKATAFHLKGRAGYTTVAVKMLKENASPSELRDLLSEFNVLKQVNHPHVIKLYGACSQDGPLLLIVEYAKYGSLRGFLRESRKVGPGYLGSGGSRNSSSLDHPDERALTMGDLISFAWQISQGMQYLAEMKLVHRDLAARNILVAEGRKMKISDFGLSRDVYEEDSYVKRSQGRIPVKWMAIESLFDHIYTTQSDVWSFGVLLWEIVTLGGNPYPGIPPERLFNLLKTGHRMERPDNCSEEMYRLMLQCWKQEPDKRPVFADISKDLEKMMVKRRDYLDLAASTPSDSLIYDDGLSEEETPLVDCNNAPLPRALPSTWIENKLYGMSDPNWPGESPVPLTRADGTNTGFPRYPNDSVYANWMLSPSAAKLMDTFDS
Protocol: as §1, §2

[3] = biological target: T3, MEK2 (Homo sapiens, UniProt P36507); details: MEK2, 1 μM; read-out: % control
T3 construct: purchased Eurofins
Protocol: as §1, §2

[4] = biological target: T4, IRAK3 (Homo sapiens, UniProt Q9Y616); details: IRAK3, 1 μM; read-out: % control
T4 construct: purchased Eurofins
Protocol: as §1, §2

[5] = biological target: T5, JAK3(JH1domain-catalytic) (Homo sapiens, UniProt P52333); details: read-out: % control
T5 construct: JAK3(JH1domain-catalytic); purchased Eurofins
T5 sequence (P52333 822-1111 limits assumed): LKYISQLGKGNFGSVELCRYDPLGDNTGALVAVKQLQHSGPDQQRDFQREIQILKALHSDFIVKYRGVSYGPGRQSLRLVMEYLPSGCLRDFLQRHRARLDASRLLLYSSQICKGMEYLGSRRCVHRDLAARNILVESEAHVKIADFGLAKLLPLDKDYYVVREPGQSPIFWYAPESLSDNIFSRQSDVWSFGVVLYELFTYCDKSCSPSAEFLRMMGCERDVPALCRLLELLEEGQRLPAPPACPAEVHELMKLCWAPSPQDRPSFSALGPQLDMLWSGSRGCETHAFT
Protocol: as §1, §2

[6] = biological target: T6, ABL1-nonphosphorylated (Homo sapiens, UniProt P00519); details: read-out: % control
T6 construct: purchased Eurofins
Protocol: as §1, §2

[7] = biological target: T7, ABL1(H396P)-nonphosphorylated (Homo sapiens, UniProt P00519, H396P); details: read-out: % control
T7 construct: purchased Eurofins
Protocol: as §1, §2

[8] = biological target: T8, KIT(L576P) (Homo sapiens, UniProt P10721, L576P); details: read-out: % control
T8 construct: purchased Eurofins
Protocol: as §1, §2

[9] = biological target: T9, SRC (Homo sapiens, UniProt P12931); details: read-out: % control
T9 construct: purchased Eurofins scanMax kinase panel
T9 sequence (P12931 whole entry): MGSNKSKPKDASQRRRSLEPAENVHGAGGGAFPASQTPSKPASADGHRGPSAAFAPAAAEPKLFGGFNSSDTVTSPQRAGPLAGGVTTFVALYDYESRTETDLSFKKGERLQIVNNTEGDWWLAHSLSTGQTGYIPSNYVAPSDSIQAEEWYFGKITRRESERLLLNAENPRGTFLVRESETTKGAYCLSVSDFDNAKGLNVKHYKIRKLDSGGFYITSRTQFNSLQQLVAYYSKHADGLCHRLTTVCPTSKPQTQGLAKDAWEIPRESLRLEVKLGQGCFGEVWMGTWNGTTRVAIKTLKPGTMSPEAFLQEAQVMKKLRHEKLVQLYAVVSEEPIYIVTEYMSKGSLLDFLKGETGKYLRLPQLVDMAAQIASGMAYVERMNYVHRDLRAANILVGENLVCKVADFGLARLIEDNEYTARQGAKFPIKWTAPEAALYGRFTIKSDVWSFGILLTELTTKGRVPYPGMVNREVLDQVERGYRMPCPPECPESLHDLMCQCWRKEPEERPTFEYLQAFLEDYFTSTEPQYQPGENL
Protocol: as §1, §2

[10] = biological target: T10, MAP3K2 (Homo sapiens, UniProt Q9Y2U5); details: MAP3K2, 1 μM; read-out: % control
T10 construct: purchased Eurofins
T10 sequence (Q9Y2U5 whole entry): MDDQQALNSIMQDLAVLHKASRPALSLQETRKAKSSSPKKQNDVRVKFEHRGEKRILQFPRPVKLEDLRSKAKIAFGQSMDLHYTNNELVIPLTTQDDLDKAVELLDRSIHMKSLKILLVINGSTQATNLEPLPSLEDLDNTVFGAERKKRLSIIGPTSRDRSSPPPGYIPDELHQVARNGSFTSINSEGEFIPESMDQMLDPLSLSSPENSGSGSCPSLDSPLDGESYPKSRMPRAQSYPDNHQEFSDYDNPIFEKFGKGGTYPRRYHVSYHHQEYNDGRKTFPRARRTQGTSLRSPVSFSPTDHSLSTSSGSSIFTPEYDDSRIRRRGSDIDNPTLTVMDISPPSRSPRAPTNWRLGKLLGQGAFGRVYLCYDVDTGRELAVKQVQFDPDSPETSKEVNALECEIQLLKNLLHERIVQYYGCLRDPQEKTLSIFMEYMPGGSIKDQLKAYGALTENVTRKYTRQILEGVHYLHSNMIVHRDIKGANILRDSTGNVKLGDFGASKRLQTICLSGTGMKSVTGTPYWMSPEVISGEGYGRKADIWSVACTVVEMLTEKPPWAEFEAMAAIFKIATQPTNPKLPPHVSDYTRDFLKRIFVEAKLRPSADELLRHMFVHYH
Protocol: as §1, §2

[11] = biological target: T11, IRAKI (Homo sapiens, UniProt P51617); details: read-out: % control
T11 construct: purchased Eurofins
Protocol: as §1, §2

[12] = biological target: T12, MAP3K3 (Homo sapiens, UniProt Q99759); details: MAP3K3, 1 μM; read-out: % control
T12 construct: purchased Eurofins
T12 sequence (Q99759 whole entry): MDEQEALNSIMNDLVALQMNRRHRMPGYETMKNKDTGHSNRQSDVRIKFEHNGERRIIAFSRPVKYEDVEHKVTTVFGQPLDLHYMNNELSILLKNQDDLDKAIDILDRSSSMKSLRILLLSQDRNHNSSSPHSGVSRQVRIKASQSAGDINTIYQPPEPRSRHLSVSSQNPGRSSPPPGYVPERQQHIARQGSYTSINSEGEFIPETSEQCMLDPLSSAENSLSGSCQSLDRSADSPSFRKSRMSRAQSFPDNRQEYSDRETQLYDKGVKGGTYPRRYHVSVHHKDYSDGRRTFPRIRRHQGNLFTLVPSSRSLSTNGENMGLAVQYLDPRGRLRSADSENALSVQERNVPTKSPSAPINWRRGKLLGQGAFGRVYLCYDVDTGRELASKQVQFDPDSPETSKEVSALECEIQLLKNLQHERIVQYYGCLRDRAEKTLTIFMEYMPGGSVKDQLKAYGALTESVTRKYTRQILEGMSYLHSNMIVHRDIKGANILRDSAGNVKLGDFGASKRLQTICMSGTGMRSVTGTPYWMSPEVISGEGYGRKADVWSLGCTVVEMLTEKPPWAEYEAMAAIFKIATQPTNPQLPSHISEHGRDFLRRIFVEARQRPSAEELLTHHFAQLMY
Protocol: as §1, §2

[13] = biological target: T13, ROCKI (Homo sapiens, UniProt Q13464); details: read-out: % control
T13 construct: purchased Eurofins scanMax kinase panel
Protocol: as §1, §2

[14] = biological target: T14, ERK2 (Homo sapiens, UniProt P28482); details: ERK2, 1 μM; read-out: % control
T14 construct: purchased Eurofins scanMax® kinase panel
Protocol: as §1, §2

[15] = biological target: T15, HIPK1 (Homo sapiens, UniProt Q86Z02); details: HIPK1, 1 μM; read-out: % control
T15 construct: purchased Eurofins scanMax® kinase panel
T15 sequence (Q86Z02 whole entry): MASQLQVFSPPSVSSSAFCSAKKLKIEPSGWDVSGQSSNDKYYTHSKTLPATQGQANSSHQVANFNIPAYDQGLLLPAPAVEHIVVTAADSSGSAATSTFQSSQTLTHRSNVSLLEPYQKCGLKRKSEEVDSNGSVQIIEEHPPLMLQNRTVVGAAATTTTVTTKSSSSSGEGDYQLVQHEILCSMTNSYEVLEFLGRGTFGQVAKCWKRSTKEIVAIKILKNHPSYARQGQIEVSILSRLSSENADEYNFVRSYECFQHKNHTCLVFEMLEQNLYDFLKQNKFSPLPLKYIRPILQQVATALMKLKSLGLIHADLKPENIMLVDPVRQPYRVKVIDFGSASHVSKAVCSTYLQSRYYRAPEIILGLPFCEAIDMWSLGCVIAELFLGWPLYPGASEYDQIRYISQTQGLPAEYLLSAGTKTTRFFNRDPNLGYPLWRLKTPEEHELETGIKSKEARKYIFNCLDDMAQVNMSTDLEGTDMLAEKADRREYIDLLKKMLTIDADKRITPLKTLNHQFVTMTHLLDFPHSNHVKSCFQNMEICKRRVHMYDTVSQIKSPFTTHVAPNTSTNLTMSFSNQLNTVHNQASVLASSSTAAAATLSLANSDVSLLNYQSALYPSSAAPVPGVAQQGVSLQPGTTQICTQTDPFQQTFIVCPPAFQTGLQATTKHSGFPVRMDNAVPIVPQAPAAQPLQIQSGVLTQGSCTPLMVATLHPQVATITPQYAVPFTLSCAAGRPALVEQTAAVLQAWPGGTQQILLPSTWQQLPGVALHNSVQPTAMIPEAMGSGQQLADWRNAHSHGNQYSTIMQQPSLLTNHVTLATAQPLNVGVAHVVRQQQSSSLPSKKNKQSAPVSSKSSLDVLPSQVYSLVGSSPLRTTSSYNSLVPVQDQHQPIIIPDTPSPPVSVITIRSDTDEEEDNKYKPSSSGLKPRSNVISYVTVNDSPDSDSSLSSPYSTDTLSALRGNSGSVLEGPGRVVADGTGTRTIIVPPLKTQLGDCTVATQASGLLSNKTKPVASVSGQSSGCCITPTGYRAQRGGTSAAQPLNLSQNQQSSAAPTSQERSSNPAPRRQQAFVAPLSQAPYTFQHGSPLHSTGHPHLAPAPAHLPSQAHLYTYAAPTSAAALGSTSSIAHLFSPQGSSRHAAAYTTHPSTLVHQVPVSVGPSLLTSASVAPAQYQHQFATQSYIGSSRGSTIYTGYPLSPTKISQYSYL
Protocol: as §1, §2

[16] = biological target: T16, PIM3 (Homo sapiens, UniProt Q86V86); details: PIM3, 1 μM; read-out: % control
T16 construct: purchased Eurofins scanMax kinase panel
Protocol: as §1, §2

[17] = biological target: T17, PIM2 (Homo sapiens, UniProt Q9P1W9); details: PIM2, 1 μM; read-out: % control
T17 construct: purchased Eurofins scanMax kinase panel
Protocol: as §1, §2

[18] = biological target: T18, CDK3 (Homo sapiens, UniProt Q00526); details: CDK3, 1 μM; read-out: % control
T18 construct: purchased Eurofins
T18 sequence (Q00526 whole entry): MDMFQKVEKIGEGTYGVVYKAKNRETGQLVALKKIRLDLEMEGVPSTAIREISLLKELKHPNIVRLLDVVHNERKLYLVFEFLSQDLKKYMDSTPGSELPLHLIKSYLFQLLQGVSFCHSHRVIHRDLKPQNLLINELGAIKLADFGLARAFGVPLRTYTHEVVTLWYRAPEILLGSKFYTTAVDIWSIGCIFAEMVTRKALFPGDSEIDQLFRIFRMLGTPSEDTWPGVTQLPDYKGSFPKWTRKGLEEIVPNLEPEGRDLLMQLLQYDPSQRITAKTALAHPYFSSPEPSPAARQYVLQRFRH
Protocol: as §1, §2

Measured: remaining binding at 1 µM

COc1ccc2nc(-c3n[nH]c4ccc(C(=O)N[C@H]5CC[C@H](N)C5)cc34)[nH]c2c1 [Example 32, N-((1S,3S)-3-aminocyclopentyl)-3-(6-methoxy-1H-benzo[d]imidazol-2-yl)-1H-indazole-5-carboxamide]
< 10%: all assays above
